The structures appear in SMILES notation. Calls of active or inactive are those of the source. The calls are words filed in the database; no cut-off is given here.

Data set [1] relates to Mus musculus. Description: CNS depressant activity in ip dosed Swiss-Webster mouse assessed as spontaneous motor activity by rotarod assay. The data set is classed as functional. In general terms: The rotarod test checks motor coordination on a turning rod.
Data set [2] concerns Mus musculus. The data set can be described thus: Anticonvulsant activity in Swiss-Webster mouse assessed as protection against pentylenetetrazole-induced seizure at 10 to 20 mg/kg, ip. The data set is classed as functional, organism-based.
The subject of data set [3] is Mus musculus. The data set can be described thus: Anticonvulsant activity in Swiss-Webster mouse assessed as protection against strychnine-induced seizure at 10 to 20 mg/kg, ip. The data set is classed as functional, organism-based.
The nature of data set [4]: Toxicity in ip dosed Swiss-Webster mouse after 24 hrs. Format: organism-based. The following applies: in vivo.
The test system of data set [5] is Mus musculus. The data set can be described thus: Safety index, ratio of LD50 for toxicity in Swiss-Webster mouse to ED50 for CNS depressant activity in ip dosed Swiss-Webster by rotarod assay. The data set is classed as functional.
Data set [6] has as its system Mus musculus. Description: Anticonvulsant activity against maximal electroshock-induced seizure in Swiss-Webster mouse assessed as prolongation of time for onset of convulsion at 50 to 200 mg/kg, ip relative to control. Format: functional. Particulars: dose mg/kg 50-200; route intraperitoneal. In general terms: The maximal electroshock test induces tonic seizures with an electrical stimulus.

In data set [7] the test system is Mus musculus. The data set can be described thus: Anticonvulsant activity against pentylenetetrazole-induced seizure in Swiss-Webster mouse assessed as prolongation of time for onset of convulsion at 50 to 200 mg/kg, ip relative to control. Format: functional.
Data set [8] has as its system Rattus norvegicus. The data set can be described thus: Toxicity in Wistar rat assessed as decrease in respiration at 5 to 15 mg/kg, ip. Format: organism-based. Also on record: dose 5-15 mg/kg, route intraperitoneal; scale not given: the % may be the effect or the level left. Particulars: in vivo.
Data set [9] deals with Rattus norvegicus. Description: Toxicity in Wistar rat assessed as decrease in body temperature at 5 to 15 mg/kg, ip. Also on record: dose 5-15 mg/kg, route intraperitoneal. Particulars: in vivo. The data set is classed as organism-based.
Data set [10] relates to Rattus norvegicus. The data set can be described thus: Toxicity in Wistar rat assessed as marked ptosis at 5 to 15 mg/kg, ip. Also on record: dose 5-15 mg/kg, route intraperitoneal. Format: organism-based. The following applies: in vivo.
In data set [11] the test system is Rattus norvegicus. Description: Toxicity in Wistar rat assessed as decrease in heart rate at 5 to 15 mg/kg, ip. The data set is classed as organism-based. Also on record: dose 5-15 mg/kg, route intraperitoneal. The following applies: in vivo.
For data set [12], the system named is Mus musculus. Description: CNS depressant activity in Swiss-Webster mouse assessed as spontaneous motor activity at 50 to 200 mg/kg, ip by rotarod assay relative to control. The following applies: dose mg/kg 50-200; route intraperitoneal. Format: functional.
For data set [13], the system named is Mus musculus. The data set can be described thus: CNS depressant activity in Swiss-Webster mouse assessed as forced motor activity at 50 to 200 mg/kg, ip by rotarod assay relative to control. Particulars: dose mg/kg 50-200; route intraperitoneal. The data set is classed as functional.
Data set [14] deals with Rattus norvegicus. The data set can be described thus: Toxicity in Wistar rat assessed as decrease in respiration at 50 to 200 mg/kg, ip. Format: organism-based. Also on record: dose 50-200 mg/kg, route intraperitoneal; scale not given: the % may be the effect or the level left. Particulars: in vivo.
Data set [15] relates to Rattus norvegicus. The data set can be described thus: Toxicity in Wistar rat assessed as decrease in body temperature at 50 to 200 mg/kg, ip. The data set is classed as organism-based. Also on record: dose 50-200 mg/kg, route intraperitoneal. Particulars: in vivo.
Data set [16] has as its system Rattus norvegicus. Description: Toxicity in Wistar rat assessed as marked ptosis at 50 to 200 mg/kg, ip. Particulars: in vivo. Format: organism-based. Also on record: dose 50-200 mg/kg, route intraperitoneal.
Data set [17] concerns Rattus norvegicus. Description: Toxicity in Wistar rat assessed as decrease in heart rate at 50 to 200 mg/kg, ip. Format: organism-based. Particulars: in vivo. Also on record: dose 50-200 mg/kg, route intraperitoneal.
The subject of data set [18] is Mus musculus. The data set can be described thus: Anticonvulsant activity against strychnine-induced seizure in Swiss-Webster mouse assessed as prolongation of time for onset of convulsion at 50 to 200 mg/kg, ip relative to control. The following applies: dose mg/kg 50-200; route intraperitoneal. The data set is classed as functional.

In general, ED50 refers to the dose at which the effect has come halfway, by size or by number of responders. Turning to `O=C1NC(=O)C(c2ccccc2)(c2ccccc2)N1` [PHENYTOIN], the ED50 in the data set with Mus musculus [1] came out at 10.7 mg/kg. Also, the result with Mus musculus [2] and with Mus musculus [3] was inactive.
A word on the LD50: it is the dose expected to kill half of the subjects tested. Take `COC(=O)N1CCN=C1SC`: in data set [4], the 50% lethal dose (LD50) at 24 h is > 1000 mg/kg. The “Ratio LD50/ED50” value in the data set on Mus musculus [5] turned out to be 16.1. Besides, in the data set with Mus musculus [6], the Activity was 106%. Moreover, the result with Mus musculus [7] was Active.
`CC(=O)N1CCN(C)C1=S`: the LD50 at 24 h in data set [4] is 40 mg/kg. Also, the “Ratio LD50/ED50” value with Mus musculus [5] was 0.5.
Regarding `COC(=O)N1CCN(C)C1=S`, the Activity with Rattus norvegicus [8] is 20%; in the data set with Rattus norvegicus [10], “Non-toxic”; in the data set on Rattus norvegicus [11], 8 bpm. Moreover, the T in the data set on Rattus norvegicus [9] amounted to 1 °C. In data set [4], this molecule gave an LD50 at 24 h of 25 mg/kg. Further, the ED50 with Mus musculus [1] is 18 mg/kg.
For the molecule `COC(=O)N1CCN=C1SCC(=O)c1ccccc1`, the LD50 at 24 h in [4] is > 1000 mg/kg. Further, the “inhibition (INH)” value in the data set on Mus musculus [12] is 85%; in the data set with Mus musculus [13] it was 40%. The Activity in the data set with Mus musculus [6] was 75%; in the data set on Mus musculus [7] (dose mg/kg 50-200, route intraperitoneal), 134%.
Regarding `CSC1=NCCN1C(C)=O`, the Activity in the data set on Rattus norvegicus [14] is on record as 50%; in the data set on Rattus norvegicus [16], “Toxic”; with Rattus norvegicus [17], 25 bpm; with Mus musculus [6] it was 90%; with Mus musculus [18], 48%. Moreover, the T with Rattus norvegicus [15] was determined as 3 °C. Further, in [4], the LD50 at 24 h is > 1000 mg/kg. The ED50 with Mus musculus [1] was 150 mg/kg. The outcome in the data set with Mus musculus [7] was Active.

The values above are taken from ChEMBL document CHEMBL3272311, “Syntheses and pharmacological activity of substituted imidazolidinethiones and thiomidazolines” (J Med Chem, 1977).
